Target: T1, Baker's yeast inorganic pyrophosphatase (PPase, EC 3.6.1.1) (Saccharomyces cerevisiae, UniProt P00817)
T1 construct: gene IPP1
Test: Fluorescent Cu2+-DHC-PPi displacement assay of PPase activity after preincubation with NaF
Format: biochemical

T1 sequence (P00817 2-287): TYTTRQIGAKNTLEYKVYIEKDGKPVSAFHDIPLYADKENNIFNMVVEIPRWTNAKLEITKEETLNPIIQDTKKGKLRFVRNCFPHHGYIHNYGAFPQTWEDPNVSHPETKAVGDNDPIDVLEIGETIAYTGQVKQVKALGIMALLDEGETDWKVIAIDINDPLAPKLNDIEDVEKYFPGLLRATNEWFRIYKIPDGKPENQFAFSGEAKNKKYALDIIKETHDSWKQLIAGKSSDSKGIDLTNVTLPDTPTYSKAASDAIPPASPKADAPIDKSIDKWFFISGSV

[F-].[Na+] [NaF]
IC50: ~18.2 µM

— paper PMC5059578, “Construction of a Turn Off-On-Off Fluorescent System Based on Competitive Coordination of Cu^2+ between 6,7-Dihydroxycoumarin and Pyrophosphate Ion for Sensitive Assay of Pyrophosphatase Activity” (Journal of Analytical Methods in Chemistry, 2016)
